Assay results as given in patent US10633407B2, “14-membered ketolides and methods of their preparation and use” (President and Fellows of Harvard College, priority 2014, dated 2020).
Values after ≈ are worked out from the molar mass of the structure shown.

How the values were obtained:
Assay in all cases: CLSI broth dilution MIC determination
Format in all cases: cell-based
[1] = test system: E. coli MP-532 clinical-cErmB; details: Escherichia coli
In short: (§1)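 Method: CLSI broth dilution; endpoint: MIC. Macrolide controls azithromycin and solithromycin added in many cases.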

E. coli MP-541 clinical = details: Escherichia coli, MP541CLINICAL, read-out: MIC
In short: as §1

[2] = test system: E. coli MP-9 ATCC25922:tolC; details: Escherichia coli, ATCC25922
In short: as §1

[3] = test system: S. aureus (MRSA) MP-513 ST-228 cErm (Clinical-cErm); details: Staphylococcus aureus, read-out: MIC
In short: as §1

[4] = test system: S. aureus MP-17 ATCCBAA-977 (BAA 977 iErm); details: Staphylococcus aureus
In short: as §1

P. aeruginosa MP-7 PAO1 = details: Pseudomonas aeruginosa, read-out: MIC
[5] = test system: P. aeruginosa MP-8 PAO1:mex (mex-oprM-deletion); details: Pseudomonas aeruginosa, PAO1
[6] = test system: K. pneumoniae MP-548 clinical; details: Klebsiella pneumoniae, MP548CLINICAL, read-out: MIC
[7] = test system: K. pneumoniae MP-546 Clinical-MDR; details: Klebsiella pneumoniae, read-out: MIC
[8] = test system: A. baumannii MP-577 Clinical-AZT low; details: Acinetobacter baumannii, read-out: MIC
[9] = test system: A. baumannii MP-576 Clinical-MDR; details: Acinetobacter baumannii, read-out: MIC
[10] = test system: S. pneumoniae mef A genotype (first strain so labelled); details: Streptococcus pneumoniae, first strain (MP-626 UNT-038)
In short: as §1

SMILES | MIC [1] | MIC (E. coli MP-541 clinical) | MIC [2] | MIC [3] | MIC [4] | MIC (P. aeruginosa MP-7 PAO1) | MIC [5] | MIC [6] | MIC [7] | MIC [8] | MIC [9] | MIC [10]
CC[C@H]1OC(=O)[C@@](C)(F)C(=O)[C@H](C)[C@@H](OC2OC(C)CC(N(C)C)C2O)[C@](C)(OC)C[C@@H](C)C(=O)[C@H](C)[C@H]2N(CCCCn3cc(-c4cccc(N)c4)nn3)C(=O)O[C@]12C (stereo partly drawn) [Solithro, solithromycin, reference compound] | > 32 µg/mL | 16 µg/mL (≈ 18.9 µM) | 4 µg/mL (≈ 4.73 µM) | > 32 µg/mL | 0.125 µg/mL (≈ 0.148 µM) | > 32 µg/mL | 8 µg/mL (≈ 9.47 µM) | 32 µg/mL (≈ 37.9 µM) | > 32 µg/mL | 32 µg/mL (≈ 37.9 µM) | > 32 µg/mL | 
CC[C@H]1OC(=O)[C@@](C)(F)C(=O)[C@H](C)[C@@H](O[C@@H]2OC(C)CC(N(C)C)C2O)[C@](C)(OC)C[C@@H](C)C(=O)[C@H](C)[C@H]2N(CC#CCn3cc(-c4cccc(N)c4)nn3)C(=O)O[C@]12C (stereo partly drawn) [FSM-100426] |  |  |  |  |  |  |  |  |  |  |  | < 0.0312 µg/mL
